Publication PMC6437697 (Journal of Medicinal Chemistry, 2019)

Columns and labels:
Test in all cases: KINOMEscan
Assay type in all cases: binding
Conditions in all cases: read-out: % control activity remaining
FLT3-autoinhibited = molecular target: T1, FLT3-autoinhibited (Homo sapiens, UniProt P36888)
T1 construct: purchased Eurofins DiscoverX KINOMEscan
T1 sequence (P36888 564-993 limits assumed): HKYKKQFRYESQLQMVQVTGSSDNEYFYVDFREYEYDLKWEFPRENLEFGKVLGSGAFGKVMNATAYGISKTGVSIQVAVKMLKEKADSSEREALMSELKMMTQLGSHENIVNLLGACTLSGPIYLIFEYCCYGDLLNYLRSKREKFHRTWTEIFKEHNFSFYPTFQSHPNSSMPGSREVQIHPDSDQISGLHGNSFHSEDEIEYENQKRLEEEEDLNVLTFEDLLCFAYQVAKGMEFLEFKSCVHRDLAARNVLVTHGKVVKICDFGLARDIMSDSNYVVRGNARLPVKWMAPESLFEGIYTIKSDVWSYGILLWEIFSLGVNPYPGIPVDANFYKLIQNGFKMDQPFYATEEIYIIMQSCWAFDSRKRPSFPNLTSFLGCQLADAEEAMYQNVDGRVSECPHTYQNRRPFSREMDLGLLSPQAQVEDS

NEK2 = molecular target: T2, NEK2 (Homo sapiens, UniProt P51955)
T2 construct: purchased Eurofins DiscoverX KINOMEscan
T2 sequence (P51955 1-445): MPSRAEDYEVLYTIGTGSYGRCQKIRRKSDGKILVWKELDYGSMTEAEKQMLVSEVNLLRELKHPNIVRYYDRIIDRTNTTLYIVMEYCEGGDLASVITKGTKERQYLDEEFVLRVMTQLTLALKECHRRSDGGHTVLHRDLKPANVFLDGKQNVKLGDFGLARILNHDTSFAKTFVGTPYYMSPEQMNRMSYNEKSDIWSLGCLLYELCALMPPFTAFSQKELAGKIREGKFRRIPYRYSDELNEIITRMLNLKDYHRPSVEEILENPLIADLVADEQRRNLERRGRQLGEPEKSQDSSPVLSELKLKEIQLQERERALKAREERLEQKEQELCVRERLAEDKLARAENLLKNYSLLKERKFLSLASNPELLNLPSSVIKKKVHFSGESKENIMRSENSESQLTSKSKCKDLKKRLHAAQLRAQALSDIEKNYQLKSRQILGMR

INSRR = molecular target: T3, INSRR (Homo sapiens, UniProt P14616)
T3 construct: purchased Eurofins DiscoverX KINOMEscan

ASK2 = molecular target: T4, ASK2 (Homo sapiens, UniProt O95382)
T4 construct: purchased Eurofins DiscoverX KINOMEscan
T4 sequence (O95382 1-1288): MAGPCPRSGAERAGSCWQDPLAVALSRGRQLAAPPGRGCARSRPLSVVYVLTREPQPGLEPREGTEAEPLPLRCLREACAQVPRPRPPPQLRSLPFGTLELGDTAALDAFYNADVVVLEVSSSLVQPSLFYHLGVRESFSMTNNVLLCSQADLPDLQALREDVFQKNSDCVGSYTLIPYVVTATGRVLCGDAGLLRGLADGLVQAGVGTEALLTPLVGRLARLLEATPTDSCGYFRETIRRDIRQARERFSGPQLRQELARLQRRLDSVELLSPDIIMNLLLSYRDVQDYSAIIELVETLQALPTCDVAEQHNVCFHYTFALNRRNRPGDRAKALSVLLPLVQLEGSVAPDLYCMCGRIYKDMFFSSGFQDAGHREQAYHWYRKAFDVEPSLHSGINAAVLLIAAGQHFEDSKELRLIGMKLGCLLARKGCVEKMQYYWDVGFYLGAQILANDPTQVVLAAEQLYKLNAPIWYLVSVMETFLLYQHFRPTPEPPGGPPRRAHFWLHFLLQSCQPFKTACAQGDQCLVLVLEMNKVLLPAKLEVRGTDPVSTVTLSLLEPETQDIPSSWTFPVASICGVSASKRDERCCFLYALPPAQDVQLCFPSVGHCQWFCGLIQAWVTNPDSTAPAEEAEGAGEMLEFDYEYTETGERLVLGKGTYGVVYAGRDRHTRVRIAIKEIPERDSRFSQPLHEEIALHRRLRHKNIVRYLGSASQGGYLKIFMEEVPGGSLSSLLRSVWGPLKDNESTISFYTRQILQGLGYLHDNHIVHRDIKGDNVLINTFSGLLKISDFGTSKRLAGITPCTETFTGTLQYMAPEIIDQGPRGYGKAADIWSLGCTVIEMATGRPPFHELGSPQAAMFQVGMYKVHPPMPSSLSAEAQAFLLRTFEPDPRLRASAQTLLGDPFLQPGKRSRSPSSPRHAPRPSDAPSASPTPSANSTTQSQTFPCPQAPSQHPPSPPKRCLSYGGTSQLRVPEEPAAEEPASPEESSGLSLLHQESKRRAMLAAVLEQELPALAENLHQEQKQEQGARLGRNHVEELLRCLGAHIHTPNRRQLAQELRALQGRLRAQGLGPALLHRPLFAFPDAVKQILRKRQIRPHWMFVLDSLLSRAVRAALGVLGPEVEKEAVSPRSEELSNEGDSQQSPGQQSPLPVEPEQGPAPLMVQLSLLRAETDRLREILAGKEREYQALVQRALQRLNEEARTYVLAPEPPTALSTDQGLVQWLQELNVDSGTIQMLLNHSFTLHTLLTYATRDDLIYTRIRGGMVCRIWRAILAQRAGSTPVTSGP

PIK3C2B = molecular target: T5, PIK3C2B (Homo sapiens, UniProt O00750)
T5 construct: purchased Eurofins DiscoverX KINOMEscan
T5 sequence (O00750 whole entry): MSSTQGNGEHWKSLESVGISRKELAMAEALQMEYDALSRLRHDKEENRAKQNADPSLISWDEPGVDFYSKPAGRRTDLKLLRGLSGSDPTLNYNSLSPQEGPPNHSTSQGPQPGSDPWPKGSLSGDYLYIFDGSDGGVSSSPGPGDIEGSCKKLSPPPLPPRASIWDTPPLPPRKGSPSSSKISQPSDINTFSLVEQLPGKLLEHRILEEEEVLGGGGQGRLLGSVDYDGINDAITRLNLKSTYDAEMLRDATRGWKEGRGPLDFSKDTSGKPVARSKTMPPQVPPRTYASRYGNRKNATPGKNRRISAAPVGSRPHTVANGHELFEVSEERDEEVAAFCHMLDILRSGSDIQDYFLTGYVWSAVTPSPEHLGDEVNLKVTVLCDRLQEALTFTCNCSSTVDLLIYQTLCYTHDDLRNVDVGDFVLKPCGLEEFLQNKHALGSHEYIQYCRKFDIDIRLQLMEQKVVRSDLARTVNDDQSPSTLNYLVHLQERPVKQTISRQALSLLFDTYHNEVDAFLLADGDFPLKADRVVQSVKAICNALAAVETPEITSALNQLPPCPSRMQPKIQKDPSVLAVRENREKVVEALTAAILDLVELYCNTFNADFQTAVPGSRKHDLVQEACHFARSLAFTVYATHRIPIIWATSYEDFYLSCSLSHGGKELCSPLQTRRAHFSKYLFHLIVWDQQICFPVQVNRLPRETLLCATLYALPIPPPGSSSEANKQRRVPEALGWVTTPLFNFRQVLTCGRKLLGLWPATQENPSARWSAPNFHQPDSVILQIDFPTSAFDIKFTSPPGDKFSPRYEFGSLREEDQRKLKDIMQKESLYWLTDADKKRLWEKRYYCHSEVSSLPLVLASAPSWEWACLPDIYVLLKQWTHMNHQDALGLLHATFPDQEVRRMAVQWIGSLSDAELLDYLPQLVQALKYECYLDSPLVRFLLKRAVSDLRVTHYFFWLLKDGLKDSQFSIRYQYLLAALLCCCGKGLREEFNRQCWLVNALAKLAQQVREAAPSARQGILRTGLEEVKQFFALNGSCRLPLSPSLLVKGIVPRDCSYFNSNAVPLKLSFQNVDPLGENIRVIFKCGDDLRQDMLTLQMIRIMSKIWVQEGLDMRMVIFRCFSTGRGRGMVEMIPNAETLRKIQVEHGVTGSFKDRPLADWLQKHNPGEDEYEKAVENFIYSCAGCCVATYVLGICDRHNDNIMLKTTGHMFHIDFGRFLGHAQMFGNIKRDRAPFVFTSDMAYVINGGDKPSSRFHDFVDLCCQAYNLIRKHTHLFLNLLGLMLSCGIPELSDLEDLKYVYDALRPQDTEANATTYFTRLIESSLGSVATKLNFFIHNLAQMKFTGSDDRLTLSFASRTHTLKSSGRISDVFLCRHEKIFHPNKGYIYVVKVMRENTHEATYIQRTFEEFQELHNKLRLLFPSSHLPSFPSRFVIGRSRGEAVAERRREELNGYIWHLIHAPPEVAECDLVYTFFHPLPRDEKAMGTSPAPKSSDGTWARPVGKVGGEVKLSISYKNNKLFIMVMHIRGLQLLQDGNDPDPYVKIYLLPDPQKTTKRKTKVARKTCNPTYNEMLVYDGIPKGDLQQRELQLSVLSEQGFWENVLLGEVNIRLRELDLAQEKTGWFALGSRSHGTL

T3 sequence (P14616 27-1297): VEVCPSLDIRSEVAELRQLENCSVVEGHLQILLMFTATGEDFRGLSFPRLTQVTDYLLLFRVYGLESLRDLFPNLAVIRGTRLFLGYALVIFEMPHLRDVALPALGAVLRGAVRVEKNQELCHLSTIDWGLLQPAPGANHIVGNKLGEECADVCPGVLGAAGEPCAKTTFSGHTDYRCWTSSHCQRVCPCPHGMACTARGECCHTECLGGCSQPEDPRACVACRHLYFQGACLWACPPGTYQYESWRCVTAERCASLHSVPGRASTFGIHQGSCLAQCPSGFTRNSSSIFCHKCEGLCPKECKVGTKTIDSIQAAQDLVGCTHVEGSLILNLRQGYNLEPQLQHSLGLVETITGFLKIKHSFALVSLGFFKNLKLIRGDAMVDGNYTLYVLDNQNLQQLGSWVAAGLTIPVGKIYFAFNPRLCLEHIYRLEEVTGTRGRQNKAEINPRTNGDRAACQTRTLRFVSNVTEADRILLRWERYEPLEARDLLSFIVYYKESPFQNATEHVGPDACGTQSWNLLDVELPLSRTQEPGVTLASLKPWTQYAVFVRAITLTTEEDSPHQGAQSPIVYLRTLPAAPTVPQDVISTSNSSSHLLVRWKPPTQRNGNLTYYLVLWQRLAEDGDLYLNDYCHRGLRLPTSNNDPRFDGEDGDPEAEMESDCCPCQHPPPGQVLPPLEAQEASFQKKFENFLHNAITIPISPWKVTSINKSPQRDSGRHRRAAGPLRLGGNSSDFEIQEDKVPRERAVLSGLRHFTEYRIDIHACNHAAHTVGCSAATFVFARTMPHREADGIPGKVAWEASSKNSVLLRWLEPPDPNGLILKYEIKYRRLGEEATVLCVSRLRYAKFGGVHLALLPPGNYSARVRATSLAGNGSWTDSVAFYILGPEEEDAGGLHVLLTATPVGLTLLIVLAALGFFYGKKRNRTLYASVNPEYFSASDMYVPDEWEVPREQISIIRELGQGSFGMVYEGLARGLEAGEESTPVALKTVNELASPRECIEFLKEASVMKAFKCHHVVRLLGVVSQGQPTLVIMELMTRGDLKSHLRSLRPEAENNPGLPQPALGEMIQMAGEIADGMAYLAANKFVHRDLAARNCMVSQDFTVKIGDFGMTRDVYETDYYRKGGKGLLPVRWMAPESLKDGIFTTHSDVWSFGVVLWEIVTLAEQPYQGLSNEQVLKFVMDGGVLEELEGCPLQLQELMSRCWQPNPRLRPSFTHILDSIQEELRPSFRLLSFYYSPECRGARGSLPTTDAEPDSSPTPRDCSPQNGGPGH

SMILES	remaining binding at 1 µM (FLT3-autoinhibited)	remaining binding at 1 µM (NEK2)	remaining binding at 1 µM (INSRR)	remaining binding at 1 µM (ASK2)	remaining binding at 1 µM (PIK3C2B)
Clc1cc(NCC2CC2)c2ncc(-c3ccc4[nH]ncc4c3)n2n1 [compound 2, 6-Chloro-N-(cyclopropylmethyl)-3-(1H-indazol-5-yl)imidazo[1,2-b]pyridazin-8-amine]	42%	100%	96%	83%	86%
O=C(CN1CCOCC1)N[C@H]1CC[C@H](Nc2cc(Cl)nn3c(-c4ccc5[nH]ncc5c4)cnc23)CC1 [compound 26]	0.65%	92%	85%	96%	97%
CN1CCC(CNc2cc(Cl)nn3c(-c4cc5nc(Nc6ccccc6)[nH]c5cc4F)cnc23)CC1 [compound 31, 6-Chloro-3-(6-fluoro-2-(phenylamino)-1H-benzo[d]imidazol-5-yl)-N-((1-methylpiperidin-4-yl)methyl)imidazo[1,2-b]pyridazin-8-amine]	90%	92%	100%	100%	100%
